The record followed here is patent US20260256751A1, “COMBINATION OF BETA-2-ADRENERGIC RECEPTOR AGONISTS AND GLP-1 RECEPTOR AGONISTS FOR USE IN TREATING HYPERGLYCAEMIA” (ATROGI AB, priority 2023, published 2026).

Assay [1] deals with differentiated L6-myotubes. Briefly: cAMP production relative to isoprenaline (Biological example 2 of WO 2019/053427). As to conditions: 0.25 h, compound at 10 μM, activity relative to isoproterenol at 10 μM. Format: cell-based. The procedure, abridged:
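Differentiated L6 myotubes stimulated 15 min with test compound or isoprenaline, each at final 1×10^−5 M, in HBSS with 1% BSA, 5 mM HEPES, 1 mM IBMX, pH 7.4. cAMP production by the compound expressed relative to that induced by the same concentration of isoprenaline.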
(Cyclic AMP is a second messenger, typically raised through Gs and lowered through Gi signalling.)

Assay [2] concerns differentiated L6-myotubes. The assay is described as follows: Glucose uptake screen (Biological example 1 of WO 2019/053427). Format: cell-based. The note with it: compound at 10 μM, activity relative to isoproterenol at 10 μM, read-out: Biological example 1 of WO 2019/053427 (GU). The procedure, abridged:
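Rat L6 myoblasts were differentiated into myotubes over 7 days in 2% FBS, then serum-starved overnight. Cells were stimulated with 1×10^−5 M compound plus β2 antagonist ICI-118551 for 1 h 40 min and re-dosed for 20 min in glucose-free medium. Uptake of 50 nM ^3H-2-deoxyglucose over 10 min was counted after NaOH lysis.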

Turning to `O[C@H](c1cncc(F)c1)[C@H]1CC[C@H](Cc2ccc(Cl)cc2)N1` [Compound 406, (R)-{(2R,5R)-5-[(p-chlorophenyl)methyl]-2-pyrrolidinyl}(5-fluoro-3-pyridyl)methanol], the Emax at 10 µM was less than 25% in assay [1] and greater than 75% in assay [2].
On the same counts, the results for `CCOC(=O)CO[C@H]1CC[C@@H](C(C)(C)NC[C@H](O)c2cccc(F)c2)CC1` [Compound 407, ethyl [(1S,4s)-4-{1-[(R)-2-(m-fluorophenyl)-2-hydroxyethylamino]-1-methylethyl}cyclohexyloxy]acetate] are less than 25% and 50 to 75%.
On the same counts, the results for `CC(C)(NC[C@H](O)c1cccc(F)c1)[C@H]1CC[C@@H](OCC(=O)O)CC1` [Compound 408, [(1S,4s)-4-{1-[(R)-2-(m-fluorophenyl)-2-hydroxyethylamino]-1-methylethyl}cyclohexyloxy]acetic acid] are less than 25% and 50 to 75%.
On the same counts, the results for `CCOC(=O)CO[C@H]1CC[C@H](C(C)(C)NC[C@H](O)c2cncc(F)c2)CC1` [Compound 409, ethyl [(1R,4r)-4-{1-[(R)-2-(5-fluoro-3-pyridyl)-2-hydroxyethylamino]-1-methylethyl}cyclohexyloxy]acetate] are less than 25% and greater than 75%.
Regarding `CO[C@H]1CC[C@H](CCC23CCC([C@@H](O)c4cccc(F)c4)(CC2)N3)CC1` [Compound 410, (S)-(m-fluorophenyl)(4-{2-[(1r,4R)-4-methoxycyclohexyl]ethyl}-7-azabicyclo[2.2.1]hept-1-yl)methanol], the Emax at 10 µM was less than 25% in assay [1] and 50 to 75% in assay [2].
On the same counts, the results for `CO[C@H]1CC[C@H](CCC23CCC([C@H](O)c4cccc(F)c4)(CC2)N3)CC1` [Compound 411, (R)-(m-fluorophenyl)(4-{2-[(1r,4S)-4-methoxycyclohexyl]ethyl}-7-azabicyclo[2.2.1]hept-1-yl)methanol] are 50 to 75% and greater than 75%.
For `O[C@@H](c1cccc(F)c1)C12CCC(Cc3ccc(F)cc3)(CC1)N2` [Compound 412, (S)-(m-fluorophenyl){4-[(p-fluorophenyl)methyl]-7-azabicyclo[2.2.1]hept-1-yl}methanol] the same measures were less than 25% and 50 to 75%.
For `O[C@H](c1cccc(F)c1)C12CCC(Cc3ccc(F)cc3)(CC1)N2` [Compound 413, (R)-(m-florophenyl){4-[(p-fluorophenyl)methyl]-7-azabicyclo[2.2.1]hept-1-yl}methanol] the same measures were less than 25% and greater than 75%.
In the case of `CC(C)(C[C@H]1CC[C@@H](NC(=O)OC(C)(C)C)CC1)NC[C@H](O)c1cccc(C#N)n1` [Compound 414], the Emax at 10 µM in assay [1] was less than 25%; in assay [2], 50 to 75%.
For `CC(C)(C[C@H]1CC[C@H](N)CC1)NC[C@@H](O)c1cccc(C#N)n1` [Compound 415, 6-[(R)-2-{1,1-dimethyl-2-[(1r,4R)-4-aminocyclohexyl]ethylamino}-1-hydroxyethyl]-2-pyridinecarbonitrile] the same measures were less than 25% and 50 to 75%.
On the same counts, the results for `CC(C)(C[C@H]1CC[C@@H](N)CC1)NC[C@@H](O)c1cccc(C#N)n1` [Compound 416, 6-[(R)-2-{1,1-dimethyl-2-[(1s,4S)-4-aminocyclohexyl]ethylamino}-1-hydroxyethyl]-2-pyridinecarbonitrile] are less than 25% and 50 to 75%.
On the same counts, the results for `CC(C)(C[C@H]1CC[C@H](N)CC1)NC[C@H](O)c1cccc(C#N)n1` [Compound 417, 6-[(S)-2-{1,1-dimethyl-2-[(1r,4S)-4-aminocyclohexyl]ethylamino}-1-hydroxyethyl]-2-pyridinecarbontirile] are 25 to 50% and greater than 75%.
